PMC8398847, “Isavuconazole: Thermodynamic Evaluation of Processes Sublimation, Dissolution and Partition in Pharmaceutically Relevant Media” (Molecules, 2021)
Where two headings read alike, the source gives them in different places.

Key:
[1] = Dissolution thermodynamics: ideal solubility, activity coefficients at infinite dilution, excess functions; type: physicochemical
Source text: The temperature dependence of solute solubility is described by the thermodynamic relationship:(26) lnx=lnxid−lnγ=ΔmH/RT[T−Tm/T]+∫TmT∫TmT(CpL−CpS)dT/RT^2−lnγ where x, xid, γ, Tm, ΔmH, ΔCp=CpL−CpS , R, and T represent the solubility mole fraction of the solute in solution, ideal mole fraction solubility of the solute, activity coefficient of the solute in solution, melting temperature of the solute, enthalpy of melting of the pure solute, differential molar heat capacity of the pure solute, gas constant and temperature, respectively. If the solubility or equilibrium mole fraction of a compound in solvents studied is low, it is assumed that the last term in Equation (26) denotes the infinite dilution activity coefficient lnγ^∞, which can be expressed as:(27) lnγ∞=ΔHsolE/RT−ΔSsolE/R where ΔHsolE and ΔSsolE represent the partial molar excess enthalpy, and partial molar excess entropy, respectively, and are assumed to be temperature independent. As the quantity ΔCp is assumed to be negligible and considered to be zero [52], substituting ΔCp = 0 into Equation (26) simplifies to (28) lnxid=−ΔHm/RTmln[Tm/T]

[2] = Partition experiment, 1-octanol/buffer pH 7.4, shake flask; type: physicochemical; conditions: for logP at 24 h: 1-octanol/buffer pH 7.4, pH 7.4, 1-octanol/buffer pH 7.4, read-out: logP*O/B (mole fraction scale); for PO/B / logPO/B / sB · 10^6 (equilibrium molar concentration, buffer phase) / sO · 10^3 (equilibrium molar concentration, organic phase) / xB · 10^7 (mole fraction, buffer phase) / xo · 10^4 (mole fraction, 1-octanol phase): 1-octanol/buffer pH 7.4
Description: The partition coefficients in the 1-octanol/buffer pH 7.4 system were determined by the shake flask method in the temperature range 293.15–313.15 K. The total volume of the two-phase system 80 cm^3 with the ratio of the organic phase to the volume of the aqueous phase 1:1 was used. Before the experiment, both solvents were mutually saturated by stirring in a large vessel for two days. […] The flasks with the test compound were stirred for 24 h in an air thermostat until complete equilibrium was ensured, as evidenced by the absence of turbidity in each of the phases. The final drug concentrations in both immiscible phases were measured spectrophotometrically.
The partition coefficients in 1-octanol/buffer system (PO/B) were calculated as the ratio of the equilibrium molar concentrations in the organic (sO) and buffer (sB )phases:PO/B =sO/sB(9)
The value P*O/B expressed in mole fraction were determined by follow equation:P*O/B = xO/xB(10)
The standard transfer enthalpy of drug was calculated based on the experimental temperature dependence of partition coefficients using van’t Hoff method:(11) d(lnPO/B*)/dT=ΔtrH^0/RT^2 whereas the standard Gibbs energy of transfer process from the buffer to 1-octanol was evaluated:∆trG° = −RTlnP*O/B(12)
The standard transfer entropy (∆trS°) is obtained by means of relationship:∆trS° =(∆trH° − ∆trG°)/T(13)
The transfer thermodynamic functions represent the change in the enthalpy and entropy terms when one solute mole is transferred from the aqueous phase to the organic phase at infinite dilution.

[3] = transfer from buffer pH 7.4 to 1-octanol

## C[C@@H](c1nc(-c2ccc(C#N)cc2)cs1)[C@](O)(Cn1cncn1)c1cc(F)ccc1F [IVZ, Isavuconazole]
[1]; 1-octanol, 293.15 K
  lnγ^∞: 2.40
[1]; 1-octanol, 298.15 K
  G^E: 1.4 ± 0.048 kcal/mol
  H^E: 0.865 ± 0.024 kcal/mol
  S^E: −7.5 ± 0.3 J·mol^−1·K^−1
  TS^E: -0.533 kcal/mol
  lnγ^∞: 2.36
  ςH^E: 61.9%
  ςTS^E: 38.1%
[1]; 1-octanol, 303.15 K
  lnγ^∞: 2.34
[1]; 1-octanol, 308.15 K
  lnγ^∞: 2.32
[1]; 1-octanol, 313.15 K
  lnγ^∞: 2.30
[1]; 1-propanol, 293.15 K
  lnγ^∞: 2.16
[1]; 1-propanol, 298.15 K
  G^E: 1.25 ± 0.048 kcal/mol
  H^E: 1.19 ± 0.024 kcal/mol
  S^E: −0.9 ± 0.04 J·mol^−1·K^−1
  TS^E: -0.0669 kcal/mol
  lnγ^∞: 2.12
  ςH^E: 94.7%
  ςTS^E: 5.3%
[1]; 1-propanol, 303.15 K
  lnγ^∞: 2.09
[1]; 1-propanol, 308.15 K
  lnγ^∞: 2.06
[1]; 1-propanol, 313.15 K
  lnγ^∞: 2.03
[1]; buffer pH 1.2, 293.15 K
  lnγ^∞: 11.51
[1]; buffer pH 1.2, 298.15 K
  G^E: 6.84 ± 0.12 kcal/mol
  H^E: -1.54 ± 0.024 kcal/mol
  S^E: −117.5 ± 4.1 J·mol^−1·K^−1
  TS^E: -8.372 kcal/mol
  lnγ^∞: 11.55
  ςH^E: 15.3%
  ςTS^E: 84.7%
[1]; buffer pH 1.2, 303.15 K
  lnγ^∞: 11.59
[1]; buffer pH 1.2, 308.15 K
  lnγ^∞: 11.64
[1]; buffer pH 1.2, 313.15 K
  lnγ^∞: 11.67
[1]; buffer pH 2.0, 293.15 K
  lnγ^∞: 12.82
[1]; buffer pH 2.0, 298.15 K
  G^E: 7.58 ± 0.14 kcal/mol
  H^E: 1.24 ± 0.072 kcal/mol
  S^E: −88.9 ± 5.1 J·mol^−1·K^−1
  TS^E: -6.334 kcal/mol
  lnγ^∞: 12.80
  ςH^E: 16.4%
  ςTS^E: 83.6%
[1]; buffer pH 2.0, 303.15 K
  lnγ^∞: 12.76
[1]; buffer pH 2.0, 308.15 K
  lnγ^∞: 12.72
[1]; buffer pH 2.0, 313.15 K
  lnγ^∞: 12.69
[1]; buffer pH 7.4, 293.15 K
  lnγ^∞: 13.26
[1]; buffer pH 7.4, 298.15 K
  G^E: 7.82 ± 0.14 kcal/mol
  H^E: 1.7 ± 0.024 kcal/mol
  S^E: −85.9 ±2.9 J·mol^−1·K^−1
  TS^E: -6.12 kcal/mol
  lnγ^∞: 13.21
  ςH^E: 21.7%
  ςTS^E: 78.3%
[1]; buffer pH 7.4, 303.15 K
  lnγ^∞: 13.15
[1]; buffer pH 7.4, 308.15 K
  lnγ^∞: 13.11
[1]; buffer pH 7.4, 313.15 K
  lnγ^∞: 13.08
[1]; buffer solutions
  entropy term ζTS^E: > 78%
[1]; ethanol, 293.15 K
  lnγ^∞: 2.00
[1]; ethanol, 298.15 K
  G^E: 1.15 ± 0.024 kcal/mol
  H^E: 1.72 ± 0.024 kcal/mol
  S^E: 8.0 ± 0.3 J·mol^−1·K^−1
  TS^E: 0.569 kcal/mol
  lnγ^∞: 1.95
  ςH^E: 75.2%
  ςTS^E: 24.8%
[1]; ethanol, 303.15 K
  lnγ^∞: 1.91
[1]; ethanol, 308.15 K
  lnγ^∞: 1.86
[1]; ethanol, 313.15 K
  lnγ^∞: 1.81
[1]; hexane, 293.15 K
  lnγ^∞: 7.12
[1]; hexane, 298.15 K
  G^E: 4.16 ± 0.072 kcal/mol
  H^E: 3.033 ± 0.024 kcal/mol
  S^E: −15.8 ± 0.4 J·mol^−1·K^−1
  TS^E: -1.13 kcal/mol
  lnγ^∞: 7.03
  ςH^E: 72.9%
  ςTS^E: 27.1%
[1]; hexane, 303.15 K
  lnγ^∞: 6.95
[1]; hexane, 308.15 K
  lnγ^∞: 6.86
[1]; hexane, 313.15 K
  lnγ^∞: 6.79
[2]; 293.15 K
  logP at 24 h: 3.44
  PO/B: 313.71
  logPO/B: 2.50
  sB · 10^6 (equilibrium molar concentration, buffer phase): 6.85
  sO · 10^3 (equilibrium molar concentration, organic phase): 2.15
  xB · 10^7 (mole fraction, buffer phase): 1.22
  xo · 10^4 (mole fraction, 1-octanol phase): 3.39
[2]; 298.15 K
  logP at 24 h: 3.5
  PO/B: 359.18
  logPO/B: 2.56
  sB · 10^6 (equilibrium molar concentration, buffer phase): 5.98
  sO · 10^3 (equilibrium molar concentration, organic phase): 2.15
  xB · 10^7 (mole fraction, buffer phase): 1.07
  xo · 10^4 (mole fraction, 1-octanol phase): 3.40
[2]; 303.15 K
  logP at 24 h: 3.56
  PO/B: 413.63
  logPO/B: 2.62
  sB · 10^6 (equilibrium molar concentration, buffer phase): 5.20
  sO · 10^3 (equilibrium molar concentration, organic phase): 2.15
  xB · 10^7 (mole fraction, buffer phase): 0.93
  xo · 10^4 (mole fraction, 1-octanol phase): 3.42
[2]; 308.15 K
  logP at 24 h: 3.62
  PO/B: 474.77
  logPO/B: 2.68
  sB · 10^6 (equilibrium molar concentration, buffer phase): 4.53
  sO · 10^3 (equilibrium molar concentration, organic phase): 2.15
  xB · 10^7 (mole fraction, buffer phase): 0.81
  xo · 10^4 (mole fraction, 1-octanol phase): 3.43
[2]; 313.15 K
  logP at 24 h: 3.68
  PO/B: 535.22
  logPO/B: 2.73
  sB · 10^6 (equilibrium molar concentration, buffer phase): 4.02
  sO · 10^3 (equilibrium molar concentration, organic phase): 2.15
  xB · 10^7 (mole fraction, buffer phase): 0.72
  xo · 10^4 (mole fraction, 1-octanol phase): 3.45
[2]; [3]
  TΔtrS°: TΔtrS° = 40.9 ± 1.5/kJ·mol^−1
  ΔtrG°: ΔtrG° = −19.99 ± 0.4/kJ·mol^−1
  ΔtrH°: ΔtrH° = 20.95 ± 0.2/kJ·mol^−1
  ΔtrS°: ΔtrS° = 137.3 ± 5.2/J·mol^−1K^−1
